Key:
Test in all cases: Test E pre-/postemergence greenhouse test, plant response rating 0-100
Type in all cases: in vivo
Conditions in all cases: Preemergence, scale 0 to 100
[1] = test system: giant foxtail (Setaria faberii)
kochia (Kochia scoparia) = test system: kochia (Kochia scoparia)
Summary of the method: (§1)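 Rated visually against controls 14-21 days after treatment on a 0-100 scale (100 = complete control). Pre- and postemergence sprays used a non-phytotoxic solvent mixture with surfactant. Preemergence seeds were in silt loam; postemergence plants were in peat-based medium at the 1- to 4-leaf stage (2-18 cm).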

[2] = test system: cocklebur (common cocklebur, Xanthium strumarium)
Summary of the method: as §1

[3] = test system: johnsongrass (Sorghum halepense)
[4] = test system: morningglory (Ipomoea coccinea)
[5] = test system: green foxtail (Setaria viridis)
[6] = test system: yellow nutsedge (Cyperus esculentus)
[7] = test system: large (Lg) crabgrass (Digitaria sanguinalis)

SMILES | Foxtail, Giant plant response rating ([1]; 31 g ai/ha) | Foxtail, Giant plant response rating ([1]; 62 g ai/ha) | Foxtail, Giant plant response rating ([1]; 125 g ai/ha) | Foxtail, Giant plant response rating ([1]; 250 g ai/ha) | Foxtail, Giant plant response rating ([1]; 500 g ai/ha) | Kochia plant response rating (kochia (Kochia scoparia); 31 g ai/ha) | Kochia plant response rating (kochia (Kochia scoparia); 62 g ai/ha) | Kochia plant response rating (kochia (Kochia scoparia); 125 g ai/ha) | Kochia plant response rating (kochia (Kochia scoparia); 250 g ai/ha) | Kochia plant response rating (kochia (Kochia scoparia); 500 g ai/ha) | Johnsongrass plant response rating ([3]; 31 g ai/ha) | Johnsongrass plant response rating ([3]; 62 g ai/ha) | Johnsongrass plant response rating ([3]; 125 g ai/ha) | Johnsongrass plant response rating ([3]; 250 g ai/ha) | Johnsongrass plant response rating ([3]; 500 g ai/ha) | Morningglory plant response rating ([4]; 31 g ai/ha) | Morningglory plant response rating ([4]; 62 g ai/ha) | Morningglory plant response rating ([4]; 125 g ai/ha) | Morningglory plant response rating ([4]; 250 g ai/ha) | Morningglory plant response rating ([4]; 500 g ai/ha) | also measured
O=C(c1ccccc1)c1cn(S(=O)(=O)CCl)nc1-c1cc(Cl)cc(Cl)c1 [Compound 1] | 0 | 0 | 0 | 0 | 0 | 0 | 0 | 0 | 50 | 98 | 0 | 0 | 0 | 20 | 20 | 0 | 0 | 0 | 0 | 0 | Cocklebur plant response rating ([2]; 500 g ai/ha): 0; Foxtail, Green plant response rating ([5]; 31 g ai/ha): 0; Foxtail, Green plant response rating ([5]; 62 g ai/ha): 0; Foxtail, Green plant response rating ([5]; 125 g ai/ha): 0; Foxtail, Green plant response rating ([5]; 250 g ai/ha): 0; Foxtail, Green plant response rating ([5]; 500 g ai/ha): 15; Nutsedge, Yellow plant response rating ([6]; 31 g ai/ha): 0; Nutsedge, Yellow plant response rating ([6]; 62 g ai/ha): 0; Nutsedge, Yellow plant response rating ([6]; 125 g ai/ha): 0; Nutsedge, Yellow plant response rating ([6]; 250 g ai/ha): 0; Crabgrass, Large plant response rating ([7]; 31 g ai/ha): 0; Crabgrass, Large plant response rating ([7]; 62 g ai/ha): 0; Crabgrass, Large plant response rating ([7]; 125 g ai/ha): 0; Crabgrass, Large plant response rating ([7]; 250 g ai/ha): 0; Crabgrass, Large plant response rating ([7]; 500 g ai/ha): 0
O=C(c1ccccc1)c1cn(S(=O)(=O)CC(F)(F)F)nc1-c1cc(Cl)cc(Cl)c1 [Compound 3] | 0 | 0 | 0 | 15 | 35 | 0 | 20 | 25 | 50 | 70 | 0 | 0 | 0 | 35 | 35 | 0 | 0 | 0 | 0 | 0 | Cocklebur plant response rating ([2]; 31 g ai/ha): 0; Cocklebur plant response rating ([2]; 250 g ai/ha): 0; Foxtail, Green plant response rating ([5]; 31 g ai/ha): 0; Foxtail, Green plant response rating ([5]; 62 g ai/ha): 0; Foxtail, Green plant response rating ([5]; 125 g ai/ha): 0; Foxtail, Green plant response rating ([5]; 250 g ai/ha): 0; Foxtail, Green plant response rating ([5]; 500 g ai/ha): 0; Nutsedge, Yellow plant response rating ([6]; 62 g ai/ha): 50; Nutsedge, Yellow plant response rating ([6]; 125 g ai/ha): 35; Nutsedge, Yellow plant response rating ([6]; 500 g ai/ha): 75; Crabgrass, Large plant response rating ([7]; 31 g ai/ha): 0; Crabgrass, Large plant response rating ([7]; 62 g ai/ha): 0; Crabgrass, Large plant response rating ([7]; 125 g ai/ha): 0; Crabgrass, Large plant response rating ([7]; 250 g ai/ha): 0; Crabgrass, Large plant response rating ([7]; 500 g ai/ha): 0
O=C(c1ccccc1)c1cn(S(=O)(=O)C(F)(F)F)nc1-c1cc(Cl)cc(Cl)c1 [Compound 2] | 0 | 0 | 0 | 0 | 0 | 0 | 0 | 0 | 65 | 90 | 0 | 0 | 0 | 0 | 0 | 0 | 0 | 0 | 0 | 0 | Cocklebur plant response rating ([2]; 31 g ai/ha): 0; Cocklebur plant response rating ([2]; 62 g ai/ha): 0; Cocklebur plant response rating ([2]; 125 g ai/ha): 0; Cocklebur plant response rating ([2]; 250 g ai/ha): 0; Foxtail, Green plant response rating ([5]; 31 g ai/ha): 0; Foxtail, Green plant response rating ([5]; 62 g ai/ha): 0; Foxtail, Green plant response rating ([5]; 125 g ai/ha): 0; Foxtail, Green plant response rating ([5]; 250 g ai/ha): 0; Foxtail, Green plant response rating ([5]; 500 g ai/ha): 0; Nutsedge, Yellow plant response rating ([6]; 31 g ai/ha): 0; Nutsedge, Yellow plant response rating ([6]; 125 g ai/ha): 50; Nutsedge, Yellow plant response rating ([6]; 250 g ai/ha): 40; Nutsedge, Yellow plant response rating ([6]; 500 g ai/ha): 35; Crabgrass, Large plant response rating ([7]; 31 g ai/ha): 0; Crabgrass, Large plant response rating ([7]; 62 g ai/ha): 0; Crabgrass, Large plant response rating ([7]; 125 g ai/ha): 0; Crabgrass, Large plant response rating ([7]; 250 g ai/ha): 0; Crabgrass, Large plant response rating ([7]; 500 g ai/ha): 0

— patent publication US10167262B2, “Herbicidal substituted 3-arylpyrazoles” (FMC CORPORATION, priority 2014, dated 2019)
